Data reported in ChEMBL document CHEMBL3856204, “Chiral 6-aryl-furo[2,3-d]pyrimidin-4-amines as EGFR inhibitors” (Eur J Med Chem, 2016).
pIC50: −log10 of the molar value.

Biological target: Epidermal growth factor receptor (Homo sapiens, UniProt P00533)
Assay: Inhibition of recombinant human GST-tagged EGFR cytoplasmic domain (668 to 1210 residues) expressed in baculovirus by Z'-LYTE assay

Sequence of Epidermal growth factor receptor (P00533 whole entry, the tested form may be a part): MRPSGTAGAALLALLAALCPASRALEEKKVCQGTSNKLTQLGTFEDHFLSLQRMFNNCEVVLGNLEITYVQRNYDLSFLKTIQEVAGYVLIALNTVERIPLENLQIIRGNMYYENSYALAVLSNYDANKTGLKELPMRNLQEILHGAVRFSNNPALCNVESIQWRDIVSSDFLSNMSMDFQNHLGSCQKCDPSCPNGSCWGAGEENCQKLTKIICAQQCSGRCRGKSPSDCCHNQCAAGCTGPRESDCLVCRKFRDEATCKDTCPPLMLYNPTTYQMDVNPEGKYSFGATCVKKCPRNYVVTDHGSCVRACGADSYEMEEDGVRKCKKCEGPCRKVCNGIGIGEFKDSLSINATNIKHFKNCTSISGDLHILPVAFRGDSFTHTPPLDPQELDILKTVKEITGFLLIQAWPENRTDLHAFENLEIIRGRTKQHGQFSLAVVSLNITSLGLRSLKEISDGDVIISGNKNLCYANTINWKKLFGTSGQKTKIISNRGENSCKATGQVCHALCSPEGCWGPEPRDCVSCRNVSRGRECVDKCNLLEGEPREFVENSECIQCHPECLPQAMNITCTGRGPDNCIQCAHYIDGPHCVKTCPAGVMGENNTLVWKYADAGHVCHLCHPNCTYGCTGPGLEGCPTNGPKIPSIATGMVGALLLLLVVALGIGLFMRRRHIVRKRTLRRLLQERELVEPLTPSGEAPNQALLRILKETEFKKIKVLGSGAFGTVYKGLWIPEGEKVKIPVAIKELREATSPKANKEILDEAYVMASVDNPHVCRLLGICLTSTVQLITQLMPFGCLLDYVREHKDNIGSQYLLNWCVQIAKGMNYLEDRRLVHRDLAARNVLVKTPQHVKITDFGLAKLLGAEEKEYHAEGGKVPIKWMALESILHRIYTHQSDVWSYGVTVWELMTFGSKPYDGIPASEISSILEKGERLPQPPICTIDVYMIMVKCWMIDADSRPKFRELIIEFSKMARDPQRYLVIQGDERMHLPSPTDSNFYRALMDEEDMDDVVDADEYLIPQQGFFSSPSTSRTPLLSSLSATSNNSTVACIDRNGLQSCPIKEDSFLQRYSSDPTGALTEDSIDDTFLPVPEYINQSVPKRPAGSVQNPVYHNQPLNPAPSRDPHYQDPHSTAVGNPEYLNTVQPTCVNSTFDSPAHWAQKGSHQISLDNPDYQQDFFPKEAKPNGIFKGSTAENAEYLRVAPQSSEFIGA

C[C@@H](Nc1ncnc2oc(-c3ccc(F)cc3)cc12)c1ccccc1
pIC50: 7.89

COc1ccc(-c2cc3c(N[C@@H](C)CO)ncnc3o2)cc1
pIC50: < 7.00

C[C@@H](Nc1ncnc2oc(-c3ccc(NCCN4CCOCC4)cc3)cc12)c1ccccc1
pIC50: 8.96

COc1cccc(-c2cc3c(N[C@H](C)c4ccccc4)ncnc3o2)c1
pIC50: 8.15

C=Cc1ccc(-c2cc3c(N[C@H](C)c4ccccc4)ncnc3o2)cc1
pIC50: 7.54

COc1ccc(-c2cc3c(NC(CC(N)=O)c4ccccc4)ncnc3o2)cc1 (racemic)
pIC50: 7.66

COc1ccccc1-c1cc2c(N[C@H](C)c3ccccc3)ncnc2o1
pIC50: 8.40

COc1ccc(-c2cc3c(N[C@H](C)c4cccc(F)c4)ncnc3o2)cc1
pIC50: 7.62

COc1ccc(-c2cc3c(N[C@H](C)c4ccccc4F)ncnc3o2)cc1
pIC50: 7.62

CC[C@@H](Nc1ncnc2oc(-c3ccc(OC)cc3)cc12)c1ccccc1
pIC50: 7.66

C[C@@H](Nc1ncnc2oc(-c3ccc(C#N)cc3)cc12)c1ccccc1
pIC50: 7.36

COc1ccc(-c2cc3c(N[C@H](C)C4CCCCC4)ncnc3o2)cc1
pIC50: < 7.00

COC[C@@H](Nc1ncnc2oc(-c3ccccc3)cc12)c1ccccc1
pIC50: 7.55

COc1ccc(-c2cc3c(N[C@@H](C)c4ccccc4)ncnc3o2)cc1
pIC50: < 6.00

COc1ccc(-c2cc3c(N[C@H](C)c4ccc(F)cc4)ncnc3o2)cc1
pIC50: 7.57

COc1ccc(-c2cc3c(N[C@H](CCO)c4ccccc4)ncnc3o2)cc1
pIC50: 8.40

C[C@@H](Nc1ncnc2oc(-c3ccccc3)cc12)c1ccccc1
pIC50: 7.96

COc1ccc(-c2cc3c(N[C@H](C)c4ccccc4)ncnc3o2)cc1
pIC50: 8.28

COc1ccc(-c2cc3c(NCc4ccccc4)ncnc3o2)cc1
pIC50: 7.13

C[C@@H](Nc1ncnc2oc(-c3cccc(O)c3)cc12)c1ccccc1
pIC50: 8.34

C[C@@H](Nc1ncnc2oc(-c3ccc(O)cc3)cc12)c1ccccc1
pIC50: 8.82

c1ccc(CNc2ncnc3oc(-c4ccccc4)cc23)cc1
pIC50: 7.03

C[C@@H](Nc1ncnc2oc(-c3ccc(Br)cc3)cc12)c1ccccc1
pIC50: 7.25
